Reference: US11332500B2, “Heterotandem bicyclic peptide complexes” (BicycleTx Limited, priority 2019, dated 2022)
Like-named read-outs stand apart in the source and are kept apart here. *1 amine or outer side, *2 acyl side, *3 side chain or, on linkers, in order; H or OH if unused. Where a SMILES comes first, the peptide text is derived from it. Bridges are numbered along the chain shown (N, C = ends). Roman numbers before positions name the chains, in order. [ ]: non-standard residue; d: D form. TATA = O=C(CC[*:1])N1CN(C(=O)CC[*:2])CN(C(=O)CC[*:3])C1; X1 = O=C(CCc1cn(CCOCCOCCOCCOCCOCCC(=O)[*:2])nn1)[*:1]; X2 = O=C(CCOCCOCCOCCOCCOCCn1cc(CCC(=O)[*:2])nn1)[*:1]; Dip = N[C@H](C(=O)O)C(c1ccccc1)c1ccccc1; Hyp = O=C(O)[C@@H]1C[C@@H](O)CN1; hArg = N=C(N)NCCCC[C@H](N)C(=O)O; tBuAla = CC(C)(C)C[C@H](N)C(=O)O; Cba = N[C@@H](CC1CCC1)C(=O)O; Nle = CCCC[C@H](N)C(=O)O

Key:
[1] = molecular target: T1, CD137 (Homo sapiens, UniProt Q07011); test: CD137 reporter assay co-culture with RKO tumour cells (PD-L1/CD137 heterotandems); format: cell-based; details: Jurkat CD137 reporter cells co-cultured with RKO (PD-L1), 6 h; read-out: Fold Induction over background
T1 construct: host or cells: Jurkat reporter cells from the Promega kit, co-cultured with tumour cells (NCI-H292, PC3 or RKO)
T1 sequence (Q07011 24-255): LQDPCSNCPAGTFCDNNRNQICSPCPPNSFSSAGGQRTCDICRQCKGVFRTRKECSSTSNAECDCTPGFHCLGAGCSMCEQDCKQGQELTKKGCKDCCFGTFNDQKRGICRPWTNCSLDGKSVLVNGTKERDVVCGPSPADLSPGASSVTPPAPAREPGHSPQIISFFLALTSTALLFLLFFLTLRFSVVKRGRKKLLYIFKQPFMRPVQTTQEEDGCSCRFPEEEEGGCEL
Experimental: Culture medium, referred to as R1 media, is prepared by adding 1% FBS to RPMI-1640 (component of Promega kit CS196005). Serial dilutions of test articles in R1 are prepared in a sterile 96 well-plate. Add 25 μL per well of test articles or R1 (as a background control) to designated wells in a white cell culture plate. Tumour cells* are harvested and resuspended at a concentration of 400,000 cells/mL in R1 media. Twenty five (25) μL/well of tumour cells are added to the white cell culture plate. Jurkat cells (Promega kit CS196005, 0.5 mL) are thawed in the water bath and then added to 5 ml pre-warmed R1 media. Twenty five (25) μL/well of Jurkat cells are then added to the white cell culture plate. Incubate the cells and test articles for 6 h at 37° C., 5% CO2. At the end of 6 h, add 75 μL/well Bio-Glo™ reagent (Promega) and incubate for 10 min before reading luminescence in a plate reader (Clariostar, BMG). The fold change relative to cells alone (Jurkat cells+Cell line used in co-culture) is calculated and plotted in GraphPad Prism as log(agonist) vs response to determine EC50 (nM) and Fold Induction over background (Max).
The tumour cell type used in co-culture for EphA2 is PC3. The tumour cell type used in co-culture for PD-L1 is RKO.
A summary of the fold induction induced by PD-L1/CD137 heterotandem peptides in the CD137 reporter coculture assay with RKO cells is shown in Table 3.

[2] = Pharmacokinetics of CD137 heterotandem bicyclic peptide complexes in SD rats; details: rat, in vivo, male SD rats, IV Inf, plasma; for clearance: read-out: Clp; for half-life: read-out: T½ (converted); for Vd: read-out: Vdss
Experimental: Male SD Rats were dosed with 2 mg/kg of each heterotandem Bicycle peptide complex formulated in 25 mM Histidine HCl, 10% sucrose pH 7. Serial bleeding (about 80 μL blood/time point) was performed via submadibular or saphenous vein at each time point. All blood samples were immediately transferred into prechilled microcentrifuge tubes containing 2 μL K2-EDTA (0.5M) as anti-coagulant and placed on wet ice. Blood samples were immediately processed for plasma by centrifugation at approximately 4° C., 3000 g. The precipitant including internal standard was immediately added into the plasma, mixed well and centrifuged at 12,000 rpm, 4° C. for 10 minutes. The supernatant was transferred into pre-labeled polypropylene microcentrifuge tubes, and then quick-frozen over dry ice. The samples were stored at […] or below as needed until analysis. 7.5 μL of the supernatant samples were directly injected for LC-MS/MS analysis using an Orbitrap Q Exactive in positive ion mode to determine the concentrations of Bicycle. Plasma concentration versus time data were analyzed by non-compartmental approaches using the Phoenix WinNonlin 6.3 software program. C0, Cl, Vdss, T½, AUC(0-last), AUC(0-inf), MRT(0-last), MRT(0-inf) and graphs of plasma concentration versus time profile were reported.

| SMILES | fold induction [1] | clearance ([2]; 3.0 mg/kg) | half-life ([2]; 3.0 mg/kg) | Vd ([2]; 3.0 mg/kg) | other results |
| --- | --- | --- | --- | --- | --- |
| CCCC[C@@H]1NC(=O)[C@H](Cc2ccc(O)cc2)NC(=O)[C@@H]2CCCN2C(=O)[C@H](CC(=O)O)NC(=O)[C@H](C)NC(=O)[C@H](Cc2ccccc2)NC(=O)[C@@H]2CSCCC(=O)N3CN(CN(C3)C(=O)CCSC[C@@H](C(=O)N[C@@H](C)C(N)=O)NC1=O)C(=O)CCSC[C@H](NC(C)=O)C(=O)N[C@@H](CC(C)(C)C)C(=O)N1CCC[C@H]1C(=O)N[C@@H](CCC(=O)O)C(=O)N[C@H](CCCCNC(=O)CCc1cn(CCOCCOCCOCCOCCOCCC(=O)NCCCC[C@@H]3NC(=O)[C@H](CCC(N)=O)NC(=O)[C@@H]4CSCCC(=O)N5CN(CN(C5)C(=O)CCSC[C@@H](C(=O)N5CCC[C@H]5C(=O)N[C@@H](CO)C(=O)N[C@@H](Cc5c[nH]cn5)C(N)=O)NC(=O)[C@H](CC(C)C)NC(=O)[C@H](Cc5c[nH]cn5)NC(=O)[C@H](CC(C)C)NC3=O)C(=O)CCSC[C@H](NC(=O)[C@H](CCCCNC(=N)N)NC(=O)[C@H](CC(=O)O)NC(C)=O)C(=O)N[C@@H](CO)C(=O)N[C@@H](C)C(=O)NCC(=O)N[C@@H](Cc3c[nH]c5ccccc35)C(=O)N[C@@H](CC(C)C)C(=O)N[C@@H]([C@@H](C)O)C(=O)N[C@@H](CCSC)C(=O)N4)nn1)C(=O)N1CCC[C@H]1C(=O)N[C@@H](Cc1ccc(O)cc1)C(=O)N2 [BCY12229] (I: Ac-D[hArg]CSAGWLTMCQKLHLCPSH-NH2 / II: Ac-C[tBuAla]PE[dK]PYCFADPY[Nle]CA-NH2; linker I:3-I:11-I:17, II:1-II:8-II:15 via TATA; linker I:13-II:5 via X2) | 8 | – | – | – | – |
| CCCC[C@@H]1NC(=O)[C@H](Cc2ccc(O)cc2)NC(=O)[C@@H]2CCCN2C(=O)[C@H](CC(=O)O)NC(=O)[C@H](C)NC(=O)[C@H](Cc2ccccc2)NC(=O)[C@@H]2CSCCC(=O)N3CN(CN(C3)C(=O)CCSC[C@@H](C(=O)N[C@@H](C)C(N)=O)NC1=O)C(=O)CCSC[C@H](NC(C)=O)C(=O)N[C@@H](CC(C)(C)C)C(=O)N1CCC[C@H]1C(=O)N[C@@H](CCC(=O)O)C(=O)N[C@H](CCCCNC(=O)CCc1cn(CCOCCOCCOCCOCCOCCC(=O)NCCCC[C@@H]3NC(=O)[C@H](CO)NC(=O)[C@@H](NC(=O)[C@H](CCCCNC(=N)N)NC(=O)[C@H](CC(=O)O)NC(C)=O)CSCCC(=O)N4CN5CN(C4)C(=O)CCSC[C@@H](C(=O)N4CCC[C@H]4C(=O)N[C@@H](CO)C(=O)N[C@@H](Cc4c[nH]cn4)C(N)=O)NC(=O)[C@H](CC(C)C)NC(=O)[C@H](Cc4c[nH]cn4)NC(=O)[C@H](CC(C)C)NC(=O)[C@H](CCCCNC(C)=O)NC(=O)[C@H](CCC(N)=O)NC(=O)[C@H](CSCCC5=O)NC(=O)[C@H](CCSC)NC(=O)[C@H]([C@@H](C)O)NC(=O)[C@H](CC(C)C)NC(=O)[C@H](Cc4c[nH]c5ccccc45)NC(=O)CNC3=O)nn1)C(=O)N1CCC[C@H]1C(=O)N[C@@H](Cc1ccc(O)cc1)C(=O)N2 [BCY12230] (I: Ac-D[hArg]CSKGWLTMCQK(Ac)LHLCPSH-NH2 / II: Ac-C[tBuAla]PE[dK]PYCFADPY[Nle]CA-NH2; linker I:3-I:11-I:17, II:1-II:8-II:15 via TATA; linker I:5-II:5 via X2) | 10 | – | – | – | – |
| CCCC[C@@H]1NC(=O)[C@H](Cc2ccc(O)cc2)NC(=O)[C@@H]2CCCN2C(=O)[C@H](CC(=O)O)NC(=O)[C@H](C)NC(=O)[C@H](Cc2ccccc2)NC(=O)[C@@H]2CSCCC(=O)N3CN(CN(C3)C(=O)CCSC[C@@H](C(=O)N[C@@H](C)C(N)=O)NC1=O)C(=O)CCSC[C@H](NC(C)=O)C(=O)N[C@@H](CC(C)(C)C)C(=O)N1CCC[C@H]1C(=O)N[C@@H](CCC(=O)O)C(=O)N[C@H](CCCCNC(=O)CCOCCOCCOCCOCCOCCn1cc(CCC(=O)NCCCC[C@H](NC(=O)[C@@H]3CSCCC(=O)N4CN5CN(C4)C(=O)CCSC[C@H](NC(=O)[C@H](CC(=O)O)NC(=O)[C@H](CCCCNC(=N)N)NC(=O)[C@H](C)NC(C)=O)C(=O)N4C[C@H](O)C[C@H]4C(=O)N[C@@H](CC(C)C)C(=O)N[C@@H](C(C)C)C(=O)N[C@@H](CC(N)=O)C(=O)N4CCC[C@H]4C(=O)N[C@@H](CC(C)C)C(=O)N[C@@H](CSCCC5=O)C(=O)N[C@@H](CC(C)C)C(=O)N[C@@H](Cc4c[nH]cn4)C(=O)N4CCC[C@H]4C(=O)N[C@H](CC(=O)O)C(=O)N[C@@H](Cc4c[nH]c5ccccc45)C(=O)N[C@@H](CCCCNC(=N)N)C(=O)N3)C(N)=O)nn1)C(=O)N1CCC[C@H]1C(=O)N[C@@H](Cc1ccc(O)cc1)C(=O)N2 [BCY12234] (I: Ac-A[hArg]DC[Hyp]LVNPLCLHP[dD]W[hArg]CK-NH2 / II: Ac-C[tBuAla]PE[dK]PYCFADPY[Nle]CA-NH2; linker I:4-I:11-I:18, II:1-II:8-II:15 via TATA; linker I:19-II:5 via X1) | – | – | – | – | clearance ([2]; 2.0 mg/kg): 1.56 L/h/kg; half-life ([2]; 2.0 mg/kg): 0.42 h; Vd ([2]; 2.0 mg/kg): 0.95 L/kg |
| CCCC[C@@H]1NC(=O)[C@H](Cc2ccc(O)cc2)NC(=O)[C@@H]2CCCN2C(=O)[C@H](CC(=O)O)NC(=O)[C@H](C)NC(=O)[C@H](Cc2ccccc2)NC(=O)[C@@H]2CSCCC(=O)N3CN(CN(C3)C(=O)CCSC[C@@H](C(=O)N[C@@H](C)C(N)=O)NC1=O)C(=O)CCSC[C@H](NC(C)=O)C(=O)N[C@@H](CC(C)(C)C)C(=O)N1CCC[C@H]1C(=O)N[C@@H](CCC(=O)O)C(=O)N[C@H](CCCCNC(=O)CCc1cn(CCOCCOCCOCCOCCOCCC(=O)N[C@H]3CSCCC(=O)N4CN5CN(C4)C(=O)CCSC[C@H](NC(=O)[C@H](CC(C)C)NC(=O)[C@@H]4CCCN4C(=O)[C@H](CC(N)=O)NC(=O)[C@H](C(C)C)NC(=O)[C@H](CC(C)C)NC(=O)[C@@H]4C[C@@H](O)CN4C3=O)C(=O)N[C@@H](CC(C)C)C(=O)N[C@@H](C(c3ccccc3)c3ccccc3)C(=O)N3CCC[C@H]3C(=O)N[C@H](CC(=O)O)C(=O)N[C@@H](Cc3c[nH]c4ccccc34)C(=O)N[C@@H]([C@@H](C)O)C(=O)N[C@H](C(N)=O)CSCCC5=O)nn1)C(=O)N1CCC[C@H]1C(=O)N[C@@H](Cc1ccc(O)cc1)C(=O)N2 [BCY13035] (I: Ac-C[tBuAla]PE[dK]PYCFADPY[Nle]CA-NH2 / II: C[Hyp]LVNPLCL[Dip]P[dD]WTC-NH2; linker I:1-I:8-I:15, II:1-II:8-II:15 via TATA; linker I:5-II:N via X1) | – | 0.66 L/h/kg | 1.5 h | 0.63 L/kg | – |
| CCCC[C@@H]1NC(=O)[C@H](Cc2ccc(O)cc2)NC(=O)[C@@H]2CCCN2C(=O)[C@H](CC(=O)O)NC(=O)[C@H](C)NC(=O)[C@H](Cc2ccccc2)NC(=O)[C@@H]2CSCCC(=O)N3CN(CN(C3)C(=O)CCSC[C@@H](C(=O)N[C@@H](C)C(N)=O)NC1=O)C(=O)CCSC[C@H](NC(C)=O)C(=O)N[C@@H](CC(C)(C)C)C(=O)N1CCC[C@H]1C(=O)N[C@@H](CCC(=O)O)C(=O)N[C@H](CCCCNC(=O)CCc1cn(CCOCCOCCOCCOCCOCCC(=O)N[C@H]3CSCCC(=O)N4CN5CN(C4)C(=O)CCSC[C@@H](C(=O)N[C@H](C)C(N)=O)NC(=O)[C@H]([C@@H](C)O)NC(=O)[C@H](Cc4c[nH]c6ccccc46)NC(=O)[C@@H](CC(=O)O)NC(=O)[C@@H]4CCCN4C(=O)[C@H](C(c4ccccc4)c4ccccc4)NC(=O)[C@H](CC(C)C)NC(=O)[C@H](CSCCC5=O)NC(=O)[C@H](CC(C)C)NC(=O)[C@@H]4CCCN4C(=O)[C@H](CC(N)=O)NC(=O)[C@H](C(C)C)NC(=O)[C@H](CC4CCC4)NC(=O)[C@@H]4C[C@@H](O)CN4C3=O)nn1)C(=O)N1CCC[C@H]1C(=O)N[C@@H](Cc1ccc(O)cc1)C(=O)N2 [BCY13040] (I: C[Hyp][Cba]VNPLCL[Dip]P[dD]WTC[dA]-NH2 / II: Ac-C[tBuAla]PE[dK]PYCFADPY[Nle]CA-NH2; linker I:1-I:8-I:15, II:1-II:8-II:15 via TATA; linker I:N-II:5 via X2) | – | 0.6 L/h/kg | 1.6 h | 0.63 L/kg | – |
